{
  "source": "ChEMBL document CHEMBL1201862",
  "about": "“PubChem BioAssay data set” (2004)",
  "key": {"[1]": {"target": "Mannose-6-phosphate isomerase (Homo sapiens, UniProt P34949)", "sequence (P34949 whole entry)": "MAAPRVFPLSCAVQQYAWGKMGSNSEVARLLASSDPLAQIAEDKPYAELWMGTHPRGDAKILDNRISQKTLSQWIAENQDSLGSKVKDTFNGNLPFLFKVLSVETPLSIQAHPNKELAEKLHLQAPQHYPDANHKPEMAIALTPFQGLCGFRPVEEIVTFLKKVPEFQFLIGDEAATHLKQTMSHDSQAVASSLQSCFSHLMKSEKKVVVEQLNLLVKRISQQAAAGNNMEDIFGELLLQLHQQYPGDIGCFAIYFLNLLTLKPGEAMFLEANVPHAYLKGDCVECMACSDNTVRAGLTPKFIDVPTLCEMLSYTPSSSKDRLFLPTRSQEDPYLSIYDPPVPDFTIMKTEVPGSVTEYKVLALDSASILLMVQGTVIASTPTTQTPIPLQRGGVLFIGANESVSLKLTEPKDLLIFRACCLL", "assay": "human PMI inhibitors, high substrate, primary screen, biochemical, fluorescence intensity, high mannose 6-phosphate (AID 1220)"}, "[2]": {"target": "Nonstructural protein 1 (Influenza A virus, UniProt Q194T2)", "sequence (Q194T2 whole entry)": "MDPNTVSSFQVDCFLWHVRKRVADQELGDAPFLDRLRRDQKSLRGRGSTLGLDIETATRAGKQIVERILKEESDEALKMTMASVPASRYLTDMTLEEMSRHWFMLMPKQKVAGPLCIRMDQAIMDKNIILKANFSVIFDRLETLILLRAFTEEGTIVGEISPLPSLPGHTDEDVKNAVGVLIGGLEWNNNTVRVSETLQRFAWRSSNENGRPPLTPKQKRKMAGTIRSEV", "type": "functional, Influenza A virus (A/California/07/2009(H1N1))"}, "[3]": {"assay": "HeLa 2N DNA content increase, dose response, cell-based, IC50 (AID 1117349)", "type": "functional"}, "[4]": {"assay": "RKO cell viability reduction, dose response, CellTiter-Glo luminescence (AID 1117322)", "type": "functional"}, "[5]": {"assay": "cytotoxicity toward HCT116 cells – cell-based, CellTiter-Glo luminescence, IC50, dose response (AID 1117332)", "type": "functional", "details": "HCT-116"}, "[6]": {"assay": "SNU-C1 cell viability reduction, dose response, CellTiter-Glo luminescence (AID 1117323)", "type": "functional, cell-based"}, "[7]": {"assay": "HeLa 4N DNA content increase, dose response, cell-based, IC50 (AID 1117351)", "type": "functional"}, "[8]": {"assay": "cytotoxicity toward HT-29 cells – cell-based, CellTiter-Glo luminescence, IC50, dose response (AID 1117330)", "type": "functional"}, "[9]": {"assay": "CellTiter-Glo luminescent dose response of DLD-1 viability loss (AID 1117352)", "type": "functional"}, "[10]": {"assay": "HCT116 cell viability decrease, GSK3B pretreatment – CellTiter-Glo, IC50, dose response (AID 1117339)", "type": "functional", "details": "HCT-116"}, "[11]": {"target": "ELAV-like protein 1 (Homo sapiens, UniProt Q15717)", "sequence (Q15717 whole entry)": "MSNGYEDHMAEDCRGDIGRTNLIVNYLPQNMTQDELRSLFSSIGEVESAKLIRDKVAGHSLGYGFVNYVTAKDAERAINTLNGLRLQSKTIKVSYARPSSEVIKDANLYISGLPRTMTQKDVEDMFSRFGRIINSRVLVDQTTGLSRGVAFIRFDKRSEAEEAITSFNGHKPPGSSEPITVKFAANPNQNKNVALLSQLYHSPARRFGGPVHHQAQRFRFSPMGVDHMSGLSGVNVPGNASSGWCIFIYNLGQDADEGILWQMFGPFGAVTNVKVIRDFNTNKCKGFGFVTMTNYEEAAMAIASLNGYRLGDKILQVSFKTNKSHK", "assay": "Identify HuR specific inhibitors.", "type": "functional"}, "[12]": {"target": "T1, Bcl-2-related protein A1 (Mus musculus, UniProt Q07440)", "T1 sequence (Q07440 whole entry)": "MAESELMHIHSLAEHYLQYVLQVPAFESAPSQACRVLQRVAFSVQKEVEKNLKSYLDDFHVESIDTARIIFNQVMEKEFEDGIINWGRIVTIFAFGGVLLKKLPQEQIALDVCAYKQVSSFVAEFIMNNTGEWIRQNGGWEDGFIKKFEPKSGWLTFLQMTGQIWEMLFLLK", "assay": "Bfl-1 inhibitors, primary screen, biochemical, fluorescence polarization, FITC-Bid, mouse (AID 432)"}, "[13]": {"target": "T1, Bcl-2-related protein A1", "assay": "Bfl-1 inhibitors blocking BH3 peptide binding, confirmation, biochemical, TR-FRET, mouse Bfl-1 (AID 621);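 also: TR-FRET binding of GST-Bfl-1 to FITC-labelled Bid peptide via terbium antibody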"}, "[14]": {"target": "fMet-Leu-Phe receptor (Homo sapiens, UniProt P21462)", "sequence (P21462 whole entry)": "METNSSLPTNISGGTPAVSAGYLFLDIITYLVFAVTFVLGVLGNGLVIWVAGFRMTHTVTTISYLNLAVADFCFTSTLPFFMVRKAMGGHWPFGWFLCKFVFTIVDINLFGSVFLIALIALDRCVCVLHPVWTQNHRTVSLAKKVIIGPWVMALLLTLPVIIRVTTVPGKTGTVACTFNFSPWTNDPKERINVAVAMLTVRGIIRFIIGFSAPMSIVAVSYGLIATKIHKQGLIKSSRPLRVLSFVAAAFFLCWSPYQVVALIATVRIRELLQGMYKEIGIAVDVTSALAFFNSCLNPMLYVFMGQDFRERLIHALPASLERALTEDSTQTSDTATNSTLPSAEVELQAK", "assay": "FPR ligands, dose response (AID 519)", "type": "functional"}, "[15]": {"assay": "A High Throughput Confirmatory Assay used to Identify Novel Compounds that Inhibit Mycobacterium Tuberculosis in the absence of Glycerol.", "type": "functional"}, "[16]": {"assay": "cells", "type": "functional, cell-based"}, "[17]": {"assay": "inhibitors of intracellular T. cruzi replication, confirmation, NIH3T3 host cells, beta-gal luminescence (AID 2044);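 also: luminescent beta-galactosidase reporter signal from transgenic T. cruzi replicating inside host cells; inhibitors lower the luminescence signal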", "type": "functional, cell-based"}, "[18]": {"assay": "cells", "type": "functional, cell-based", "remark": "listed apart in the source"}, "[19]": {"assay": "cytotoxicity toward NIH3T3 fibroblasts, dose response, counter-screen, cell-based, ATP luminescence, mouse fibroblasts (AID 2010);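 also: cells exposed to compound for about 90 hours before reading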", "type": "functional"}, "[20]": {"assay": "HEK293T cell cytotoxicity, dose response, cytotoxicity control, CellTiter-Glo luminescence, dry powder, set 2 (AID 720595)", "type": "functional, cell-based", "details": "HEK293"}, "[21]": {"assay": "HeLa cell cytotoxicity, dose response, cytotoxicity control, CellTiter-Glo luminescence, dry powder, set 2 (AID 720593)", "type": "functional, cell-based"}, "[22]": {"assay": "HepG2 cell cytotoxicity, dose response, cytotoxicity control, ATP luminescence, cherry-pick, activator set 2 (AID 1053143)", "type": "functional, cell-based"}, "[23]": {"assay": "CTGF mRNA reduction under YAP1 overexpression, dose response, mechanism study for YAP1 pathway inhibitor project, DLD1 cells, RT-qPCR, cherry-pick (AID 1053127)", "type": "functional, cell-based", "details": "DLD-1"}, "[24]": {"target": "Neuropeptides B/W receptor type 1 (Homo sapiens, UniProt P48145)", "sequence (P48145 whole entry)": "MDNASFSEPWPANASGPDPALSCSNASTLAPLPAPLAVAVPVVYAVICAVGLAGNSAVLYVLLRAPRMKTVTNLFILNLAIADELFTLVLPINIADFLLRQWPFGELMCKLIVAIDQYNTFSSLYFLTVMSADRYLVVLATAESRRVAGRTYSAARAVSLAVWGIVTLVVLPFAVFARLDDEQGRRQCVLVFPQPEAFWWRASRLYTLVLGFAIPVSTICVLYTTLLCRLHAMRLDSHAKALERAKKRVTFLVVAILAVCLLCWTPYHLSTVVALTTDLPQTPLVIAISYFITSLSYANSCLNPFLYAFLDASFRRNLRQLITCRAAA", "assay": "Fluorescence-based dose response cell-based high throughput screening assay to identify antagonists of the G-protein coupled receptor 7 (GPR7). [Related pubchem assays: 1952 (Screening assay (GPR7 antagonists).), 1880 (Summary AID.)]", "type": "functional"}, "[25]": {"target": "Melanin-concentrating hormone receptor 1 (Homo sapiens, UniProt Q99705)", "sequence (Q99705 whole entry)": "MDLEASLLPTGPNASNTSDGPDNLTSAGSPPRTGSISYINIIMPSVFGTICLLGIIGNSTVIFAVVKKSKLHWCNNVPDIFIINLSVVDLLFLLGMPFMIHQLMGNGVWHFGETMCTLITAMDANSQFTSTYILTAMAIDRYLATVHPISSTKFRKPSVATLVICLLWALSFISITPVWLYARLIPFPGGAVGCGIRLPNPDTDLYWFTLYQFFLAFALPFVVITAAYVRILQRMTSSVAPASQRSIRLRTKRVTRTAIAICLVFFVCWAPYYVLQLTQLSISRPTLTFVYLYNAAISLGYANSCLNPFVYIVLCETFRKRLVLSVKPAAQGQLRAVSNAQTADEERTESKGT", "assay": "Fluorescence-based counterscreen for antagonists of the G-protein coupled receptor 7 (GPR7): cell-based high throughput dose response assay to identify antagonists of the melanin-concentrating hormone receptor 1 (MCHR1).", "type": "functional"}, "[26]": {"assay": "P. falciparum 3D7-ScDHODH growth inhibitors, dose response, SYBR Green, dry powder samples (AID 1159570);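 also: parasite growth measured after 72 hours of compound exposure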", "type": "functional, cell-based"}, "[27]": {"assay": "P. falciparum Dd2 growth inhibitors, dose response, SYBR Green, cherry-picked samples (AID 1159567)", "type": "functional, cell-based"}, "[28]": {"assay": "P. falciparum Dd2 growth inhibitors, dose response, SYBR Green, dry powder samples (AID 1159566);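 also: potency for growth inhibition with lower SYBR green DNA signal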", "type": "functional, cell-based"}, "[29]": {"assay": "HepG2 cell cytotoxicity, dose response, cytotoxicity control, cherry-picked samples (AID 1159577)", "type": "functional, cell-based"}, "[30]": {"assay": "Plasmodium falciparum Dd2 Sybr green parasite growth Measured in Cell-Based and Microorganism Combination System Using Plate Reader - 2153-01_Inhibitor_Dose_DryPowder_Activity_Set10.", "type": "functional"}, "[31]": {"assay": "P. falciparum ATP4 D1247Y mutant growth inhibitors, dose response, NITD609-resistant line, SYBR Green, dry powder (AID 1159571);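 also: parasites synchronized at ring stage by sorbitol before testing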", "type": "functional, cell-based"}},
  "note": "Active and inactive are the calls of the source.",
  "data": [
    {"smiles": "COc1ccc(Nc2c([N+](=O)[O-])ccc3c2=NC2(CCCCC2)N=3)cc1", "values": [
      {"measurement": "IC50", "setting": "[1]", "value": "> 50 µM (not active)"},
      {"measurement": "IC50", "setting": "[2]", "value": "11.1 µM (active)"}
    ]},
    {"smiles": "CC(C)C[C@H](NC(=O)[C@H](CCc1ccccc1)NC(=O)CN1CCOCC1)C(=O)N[C@@H](Cc1ccccc1)C(=O)N[C@@H](CC(C)C)C(=O)[C@@]1(C)CO1", "note": "[CARFILZOMIB]", "values": [
      {"measurement": "IC50", "setting": "[3]", "value": "> 10 µM (inactive)"},
      {"measurement": "IC50", "setting": "[4]", "value": "3.94 nM (active)"},
      {"measurement": "IC50", "setting": "[5]", "value": "5.58 nM (active)"},
      {"measurement": "IC50", "setting": "[6]", "value": "1.47 nM (active)"},
      {"measurement": "IC50", "setting": "[7]", "value": "> 10 µM (inactive)"},
      {"measurement": "IC50", "setting": "[8]", "value": "3.18 nM (active)"},
      {"measurement": "IC50", "setting": "[9]", "value": "6.96 nM (active)"},
      {"measurement": "IC50", "setting": "[10]", "value": "1.73 nM (active)"}
    ]},
    {"smiles": "CC1=CC(C)(C)N=C(S)N1c1cccc2cc(S(=O)(=O)O)ccc12", "values": [
      {"measurement": "IC50", "setting": "[11]", "value": "14.7 µM (inactive)"}
    ]},
    {"smiles": "O=C(C1=C(O)C(=O)N(c2ncccn2)C1c1cccc(Cl)c1)c1ccco1", "note": "(stereo unspecified)", "values": [
      {"measurement": "IC50", "setting": "[12]", "value": "> 100 µM (not active)"},
      {"measurement": "IC50", "setting": "[13]", "value": "> 100 µM (not active)"},
      {"measurement": "Ki", "setting": "[14]", "value": "> 66.7 µM (inactive)"}
    ]},
    {"smiles": "CC(C)OC(=O)c1ccc(NC(=S)NC(=O)c2cncc(Br)c2)cc1", "values": [
      {"measurement": "IC50", "setting": "[15]", "value": "> 100 µM (active)"}
    ]},
    {"smiles": "CCc1cc2c(O)nc(-c3ccccn3)nc2s1", "values": [
      {"measurement": "EC50", "setting": "[16]", "value": "> 350 µM (not active)"},
      {"measurement": "EC50", "setting": "[17]", "value": "1.38 µM (active)"},
      {"measurement": "EC50", "setting": "[18]", "value": "28.8 µM (active)"},
      {"measurement": "EC50", "setting": "[19]", "value": "2.45 µM (active)"},
      {"measurement": "AC50", "setting": "[20]", "value": "34.5 µM (active)"},
      {"measurement": "AC50", "setting": "[21]", "value": "24.1 µM (active)"},
      {"measurement": "AC50", "setting": "[22]", "value": "14.2 µM (active)"}
    ]},
    {"smiles": "CC(C)(C)[S@@+]([O-])N1Cc2cc(C(=O)NCCc3ccncc3)nc(-c3cccc(-c4cccc(C#N)c4)c3)c2[C@H]1CCO", "values": [
      {"measurement": "AC50", "setting": "[23]", "value": "498 nM (active)"}
    ]},
    {"smiles": "CCc1ccc(Cn2nnc(C(=O)Nc3ccc(OC)cc3OC)c2N)cc1", "values": [
      {"measurement": "IC50", "setting": "[24]", "value": "> 43.8 µM (not active)"},
      {"measurement": "IC50", "setting": "[25]", "value": "> 43.8 µM (not active)"}
    ]},
    {"smiles": "COc1ccc(-c2ccccc2[C@H]2[C@@H](C#N)N(C(=O)C3CCCC3)[C@@H]2CO)cc1", "values": [
      {"measurement": "AC50", "setting": "[26]", "value": "690 nM (active)"},
      {"measurement": "AC50", "setting": "[27]", "value": "1.34 µM (active)"},
      {"measurement": "AC50", "setting": "[28]", "value": "717 nM (active)"},
      {"measurement": "AC50", "setting": "[29]", "value": "> 42 µM (inactive)"},
      {"measurement": "AC50", "setting": "[30]", "value": "867 nM (active)"},
      {"measurement": "AC50", "setting": "[31]", "value": "2.54 µM (active)"}
    ]}
  ]
}
